Data on two compounds can be found in patent US10660933B2, “Compositions and methods for inhibition of bacterial infections in human endocervix” (priority 2015, dated 2020).

Assay type in all cases: cell-based, human
In assay [1] the test system is polarized T84 cells. Briefly: Ng-induced exfoliation of polarized T84 monolayers (3D-CFM). The following applies: MS11ΔOpa, 6 h; inhibitor 1 h before and during; ML-7 10 μM, PIK 100 μM, Y27632 10 μM, 2APB 10 μM. From the text:
To quantify epithelial exfoliation, the number of Ng associated cells localized on the top of the epithelial monolayer (exfoliated) and the total number of Ng associated epithelial cells was counted by visual inspection in each randomly acquired image, to determine the percentage of exfoliated cells. To estimate the level of Ng penetration into the subepithelium, the number of non-exfoliated epithelial cells (in clearly visible epithelial monolayers) with basal Ng staining and the total number of Ng associated epithelial cells were visually counted to calculate the percentage of infected epithelial cells with Ng penetration into the basolateral side. To evaluate the disruption of the apical junction, the number of Ng associated epithelial cells that lost continuously apical staining of the junctional protein ZO1 and the total number of Ng associated epithelial cells were visually counted to calculate the percentage of Ng associated epithelial cells with apical junction disassembly. To quantify the redistribution of pMLC, the fluorescence intensity ratios (FIR) of pMLC staining at the apical to lateral in individual epithelial cells were determined using average FI as previously described.
(§1) Immunofluorescence analysis of polarized epithelial cells. Cells were pretreated with or without NMII kinase inhibitors, Y27632 (10 μM, EMD Millipore), ML-7 (10 μM, EMD Millipore) and PIK (100 μM) or Ca2+ inhibitors, 2APB (10 μM, EMD Millipore) and BAPTA (50 μM, EMD Millipore) for 1 h, and incubated with Ng in the presence or absence of the inhibitors for 6 h. Cell were washed and fixed with 4% paraformaldehyde, permeabilized with 1% Triton X100, and stained with anti-E-cadherin (BD Bioscience), anti-pMLC (Cell Signaling Technology, Carlsbad, Calif.), anti-Ng antibodies, and DAPI for nuclei. Cells were analyzed by CFM. Images were acquired as Z-series of 0.37 μm slices, and 3D composites obtained. Epithelial exfoliation will be quantified using xz images as described for the tissue explants. The distribution of E-cadherin and pMLC was quantitatively analyzed by measuring the FIR at the apical junctional to the cytoplasmic area (from xy images) or at the apical to lateral surface area (from xz images) in individual cells.

Assay [2] has as its system polarized T84 cells. The assay can be described thus: Exfoliation of polarized T84 cells treated with inhibitors alone, without Ng. The following applies: no Ng inoculation, 6 h. The procedure: Polarized T84 cells were treated with inhibitors for 6 h, fixed, stained to visualize the cell nuclei, and imaged by 3D-CFM. The percentage of cell moving above the epithelial monolayer (dash lines) was determined from three independent experiments. Scale bar, 5 μm. *p≤0.05.
as §1

Assay [3] deals with phosphorylated myosin light chain (pMLC). Briefly: pMLC (active NMII) redistribution in Ng-inoculated polarized T84 cells (3D-CFM). The following applies: for accumulation of pMLC at Ng adherent sites / apical:lateral FIR of pMLC: polarized T84, Ng 6 h; for junction:non-junction FIR of pMLC: polarized T84, Ng 6 h (Y27632: MS11ΔOpa); for junction:non-junction FIR of pMLC / apical:lateral FIR of pMLC: ML-7 10 μM, PIK 100 μM, Y27632 10 μM, 2APB 10 μM, BAPTA 50 μM. The method, then:
Ng induce and Opa suppresses the redistribution of active non-muscle myosin II in polarized and endocervical epithelial cells. […] We examined the cellular distribution of active NMII after 6-h incubation with Ng, using antibody specific for phosphorylated myosin light chain (pMLC) and 3D-CFM. In uninfected polarized T84 (FIGS. 5A and 5C) and HEC-1-B cells (FIG. 10), pMLC was primarily localized at the apical junction. The polarized distribution of pMLC at the apical surface was quantified by the FIR of pMLC at the apical to the lateral (Apical:Lateral) membrane areas in individual cells using CFM images scanning across the apical and basolateral surfaces (FIGS. 5A and 5B). The polarized distribution pMLC at the apical junction was quantified by the FIR of pMLC at the junction to non-junction (Junction:Non-junction) areas of the apical region using CFM images scanning through the apical junction (FIGS. 5C and 5D). The apical inoculation of MS11Opa+ and MS11ΔOpa caused significant increases in apical:lateral FIR in both polarized T84 (FIGS. 5A and 5B) and HEC-1-B cells (FIG. 10), compared to the no Ng control. There were also significant increases in the junction:non-junction FIR in infected polarized T84 cells, compared to non-infected cells (FIGS. 5C and 5D). […] We further noticed that NMII at the apical surface appeared to accumulate at Ng adherent sites (FIG. 5A, middle panels, arrows).
as §1

In another assay the test system is E-cadherin. The assay can be described thus: E-cadherin distribution at the apical junction of Ng-inoculated polarized T84 cells. Conditions: polarized T84, Ng 6 h; ML-7 10 μM, 2APB 10 μM, Y27632 10 μM. From the text:
Ng-induced junction disassembly requires NMII activation and Ca^2+ flux but is suppressed by Opa. The linkage between the efficiency of Ng penetration into the epithelium with Ng induced epithelial exfoliation and apical junction disruption shown here and previously implicate Ng induced junction disruption as an underlying cause of epithelial exfoliation. To test this hypothesis, we determined whether Opa expression and the MLCK and Ca^2+ inhibitors, which all inhibited Ng induced epithelial exfoliation, also prevent Ng from disrupting the apical junction. The structural integrity of the apical junction was evaluated by analyzing the distribution of E-cadherin using immunofluorescence (IFM) and 3D-CFM and quantifying the fluorescence intensity ratio (FIR) of E-cadherin at the cytoplasm to that at the apical junction. In polarized T84 cells that were not inoculated with Ng, E-cadherin staining was primarily localized at the apical junction (FIG. 4A, top panels). […]
Immunofluorescence analysis of polarized epithelial cells. […] Cells were analyzed by CFM. […] Epithelial exfoliation will be quantified using xz images as described for the tissue explants. The distribution of E-cadherin and pMLC was quantitatively analyzed by measuring the FIR at the apical junctional to the cytoplasmic area (from xy images) or at the apical to lateral surface area (from xz images) in individual cells.

Assay [4] deals with polarized T84 cells. The assay can be described thus: Fence function of the apical junction (CellMask) in polarized T84 cells. Conditions: polarized T84, Ng-inoculated; ML-7 10 μM, 2APB 10 μM. The procedure: Ng-induced junctional disassembly leads to a significant increase in the lateral diffusion between the apical and basolateral membrane but not in the permeability of epithelial monolayers. To determine whether Opa, MLCK and Ca^2+ flux are involved in this functional alteration of the apical junction, we stained the basolateral surface of polarized T84 epithelial cells exclusively with CellMask dye for […], after apical incubation with fluorescently labeled Ng for 6 h. The appearance of basolaterally stained CellMask dye in the apical membrane indicates a decrease in the fence function of the apical junction (FIG. 4D). […] The percentage of cells with basolaterally labeled CellMask reaching the apical surface increased to 19.4% when MS11Opa+ was inoculated and to 62.2% when MS11ΔOpa was inoculated (FIGS. 4E and 4F).
Fence functional of the apical junction. Polarized T84 cells were incubated with Ng apically for 6 h. Then the cells were incubated with the CellMask dye (5 μg/ml, Life Technologies) in the basolateral chamber only for 15 min, and xz images were acquired using Leica TCS SP5X confocal microscope (Leica Microsystems, Buffalo Grove, Ill.). The number of epithelial cells displaying CellMask staining at the apical membrane was countered visually as the percentage of the total number of epithelial cells in each randomly acquired image.

In the case of `NCCOB(c1ccccc1)c1ccccc1` [2APB], the “exfoliation of MS11ΔOpa-infected epithelial cells from T84 monolayers” value with polarized T84 cells [1] is “reduced the exfoliation of polarized T84 cells to the level similar to ML-7 and PIK”. For the same compound, the “epithelial exfoliation with inhibitors alone” value with polarized T84 cells [2] is “did not affect epithelial exfoliation”. For the same compound, in assay [3], the “accumulation of pMLC at Ng adherent sites” value was “decreased”, the “junction:non-junction FIR of pMLC” value is “decreased” and the “apical:lateral FIR of pMLC” value is listed as “decreased”. Moreover, in the assay on E-cadherin, the “punctuate cytoplasmic staining and cytoplasm:junction FIR of E-cadherin” value was “decreased the punctuate staining of E-cadherin in the cytoplasm and the cytoplasm:junction FIR of E-cadherin to or below the control level”. Besides, in the assay with polarized T84 cells [4], the “percentage of epithelial cells with CellMask staining leaked to the apical surface” value is “significantly lowered the percentage of epithelial cells with the CellMark staining leaked to the apical surface”.
Turning to `O=S(=O)(c1cccc2c(I)cccc12)N1CCCNCC1` [ML-7], in the assay with polarized T84 cells [1], the “exfoliation of MS11ΔOpa-infected epithelial cells from T84 monolayers” value is listed as “reduced the exfoliation”. Besides, in the assay with polarized T84 cells [2], the “epithelial exfoliation with inhibitors alone” value is listed as “did not affect epithelial exfoliation”. Moreover, in assay [3], the “accumulation of pMLC at Ng adherent sites” value is on record as “significantly reduced”, the “junction:non-junction FIR of pMLC” value is recorded as “significantly reduced” and the “apical:lateral FIR of pMLC” value is “significantly reduced”. For the same compound, the “punctuate cytoplasmic staining and cytoplasm:junction FIR of E-cadherin” value in the assay on E-cadherin was “decreased the punctuate staining of E-cadherin in the cytoplasm and the cytoplasm:junction FIR of E-cadherin to or below the control level”. Moreover, the “percentage of epithelial cells with CellMask staining leaked to the apical surface” value with polarized T84 cells [4] was “significantly lowered the percentage of epithelial cells with the CellMark staining leaked to the apical surface”.
